# Test results taken from US20260356856A1, “KRAS G12S AND G12C INHIBITORS” (MIRATI THERAPEUTICS, INC., priority 2023, published 2026).
# Experiments:
# KRas G12C = molecular target: T1, KRas G12C (Homo sapiens, UniProt P01116, G12C); test: KRas binding assay, TR-FRET displacement of Cy5 labelled tracer; settings: 60-minute incubation at room temperature, 1% DMSO, pH 7.5
# T1 construct: Biotinylated KRas (corresponding to amino acids 1-169, produced at Accelegan Inc.); biotin (biotinylated); purchased Accelegan Inc
# T1 sequence (P01116 1-169 isoform P01116-2 G12C): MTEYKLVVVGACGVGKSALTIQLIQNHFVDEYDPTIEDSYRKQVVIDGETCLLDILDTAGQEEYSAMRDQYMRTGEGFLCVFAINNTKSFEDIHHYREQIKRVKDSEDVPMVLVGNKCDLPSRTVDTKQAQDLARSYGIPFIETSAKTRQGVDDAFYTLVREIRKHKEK
# In short: (§1)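 Biotinylated KRas (aa 1-169) incubated with Cy5-labelled tracer, terbium streptavidin and compound (1% DMSO final) in 50 mM HEPES pH 7.5, 5 mM MgCl2, 0.005% Tween-20, 1 mM DTT. Tracer displacement read by TR-FRET after 60 min at room temperature; POC values fitted to 4-parameter IC50 equation.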
# KRas G12S = molecular target: T2, KRas G12S (Homo sapiens, UniProt P01116, G12S); test: as above; settings: 60-minute incubation at room temperature, 1% DMSO, pH 7.5
# T2 construct: Biotinylated KRas (corresponding to amino acids 1-169, produced at Accelegan Inc.); biotin (biotinylated); purchased Accelegan Inc
# T2 sequence (P01116 1-169 isoform P01116-2 G12S): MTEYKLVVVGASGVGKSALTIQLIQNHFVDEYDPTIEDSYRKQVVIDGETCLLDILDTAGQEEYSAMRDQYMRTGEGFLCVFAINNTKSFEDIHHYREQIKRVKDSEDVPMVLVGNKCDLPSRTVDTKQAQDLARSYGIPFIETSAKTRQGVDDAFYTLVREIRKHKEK
# In short: as §1
# KRas WT = molecular target: T3, KRas WT (Homo sapiens, UniProt P01116); test: as above; settings: 60-minute incubation at room temperature, 1% DMSO, pH 7.5
# T3 construct: Biotinylated KRas (corresponding to amino acids 1-169, produced at Accelegan Inc.); biotin (biotinylated); purchased Accelegan Inc
# T3 sequence (P01116 1-169 isoform P01116-2): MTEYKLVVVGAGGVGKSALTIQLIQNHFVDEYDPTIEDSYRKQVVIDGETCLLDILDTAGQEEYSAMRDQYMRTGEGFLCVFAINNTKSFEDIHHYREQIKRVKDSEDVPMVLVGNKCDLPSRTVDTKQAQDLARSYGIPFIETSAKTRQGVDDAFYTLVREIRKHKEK
# In short: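 Assay buffer was HEPES (50 mM, pH 7.5) with MgCl2 (5 mM), DTT (1 mM) and Tween-20 (0.005%). Biotinylated KRas spanning residues 1-169 met tracer, terbium streptavidin and compound (1% DMSO, final) for 60 minutes at ambient temperature before reading. POC values were fitted for IC50.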
# [1] = molecular target: T4, KRas-mediated phosphorylation of ERK in MKN1 cells (Homo sapiens, UniProt P01116); test: Inhibition of KRas-mediated phosphorylation of ERK (HTRF), MKN1 cells; type: cell-based; settings: MKN1 cells (KRas WT); HTRF pERK; 3 h incubation
# T4 construct: pERK HTRF read-out
# T4 sequence (P01116 1-188 isoform P01116-2): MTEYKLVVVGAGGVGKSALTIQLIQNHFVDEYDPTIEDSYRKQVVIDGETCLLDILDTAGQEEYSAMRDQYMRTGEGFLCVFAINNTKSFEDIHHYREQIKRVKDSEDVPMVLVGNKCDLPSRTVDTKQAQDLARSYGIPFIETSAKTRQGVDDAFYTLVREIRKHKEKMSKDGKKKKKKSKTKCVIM
# Description: Inhibition of KRas Phosphorylation of ERK (HTRF) by Exemplary Compounds of Formula (Ia) or (Ib)
# Cisbio HTRF Advanced pERK Assay Catalog #64AERPEH • Cells: MKN1, PSN1 • Procedure: • 1. Day 1: Seed 6,000 cells/well −25 μl/well in 384-well white solid bottom plate; RPM1_10% FBS. Incubate overnight at 37 °C/5% CO2. • 2.
# [2] = molecular target: T5, KRas-mediated phosphorylation of ERK in A549 cells (Homo sapiens, UniProt P01116, G12S); test: Inhibition of KRas-mediated phosphorylation of ERK (HTRF), A549 cells; type: cell-based; settings: HTRF pERK, 3 h incubation
# T5 construct: pERK HTRF read-out
# T5 sequence (P01116 1-188 isoform P01116-2 G12S): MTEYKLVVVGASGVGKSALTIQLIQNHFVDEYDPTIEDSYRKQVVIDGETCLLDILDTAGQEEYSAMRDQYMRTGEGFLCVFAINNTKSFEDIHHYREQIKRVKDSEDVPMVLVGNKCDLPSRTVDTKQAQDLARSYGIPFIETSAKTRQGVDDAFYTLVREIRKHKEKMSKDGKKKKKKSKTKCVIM
# [3] = molecular target: T6, KRas-mediated phosphorylation of ERK in H358 cells (Homo sapiens, UniProt P01116, G12C); test: Inhibition of KRas-mediated phosphorylation of ERK (HTRF), H358 cells; type: cell-based; settings: HTRF pERK, 3 h incubation
# T6 construct: pERK HTRF read-out
# T6 sequence (P01116 1-188 isoform P01116-2 G12C): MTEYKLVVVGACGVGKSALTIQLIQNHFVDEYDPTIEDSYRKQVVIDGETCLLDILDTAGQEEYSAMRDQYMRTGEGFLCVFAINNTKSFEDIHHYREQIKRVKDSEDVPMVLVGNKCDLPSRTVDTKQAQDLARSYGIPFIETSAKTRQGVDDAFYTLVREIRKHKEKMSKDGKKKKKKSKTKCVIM
Structure (SMILES),IC50 (KRas G12C),IC50 (KRas G12S),IC50 (KRas WT),IC50 [1],IC50 [2],IC50 [3]
"CCc1c(F)ccc2cc(O)cc(-c3ncc4c(N5C[C@H]6C[C@@H](C(=O)n7ccc(C)n7)[C@H]6C5)nc(OC[C@@]56CCCN5C[C@H](F)C6)nc4c3F)c12 [Example 210, ((1S,5S,6R)-3-(7-(8-ethyl-7-fluoro-3-hydroxynaphthalen-1-yl)-8-fluoro-2-(((2R,7aS)-2-fluorotetrahydro-1H-pyrrolizin-7a(5H)-yl)methoxy)pyrido[4,3-d]pyrimidin-4-yl)-3-azabicyclo[3.2.0]heptan-6-yl)(3-methyl-1H-pyrazol-1-yl)methanone]",2250 nM,1290 nM,2730 nM,5020 nM,741 nM,8660 nM
"CCc1c(F)ccc2cc(O)cc(-c3ncc4c(N5C[C@@H]6C[C@H](C(=O)n7ccc(C)n7)[C@@H]6C5)nc(OC[C@@]56CCCN5C[C@H](F)C6)nc4c3F)c12 [Example 211, ((1R,5R,6S)-3-(7-(8-ethyl-7-fluoro-3-hydroxynaphthalen-1-yl)-8-fluoro-2-(((2R,7aS)-2-fluorotetrahydro-1H-pyrrolizin-7a(5H)-yl)methoxy)pyrido[4,3-d]pyrimidin-4-yl)-3-azabicyclo[3.2.0]heptan-6-yl)(3-methyl-1H-pyrazol-1-yl)methanone]",61 nM,15 nM,314 nM,567 nM,23 nM,518 nM
"CCc1c(F)ccc2cc(O)cc(-c3ncc4c(N5CCC(C(=O)NC(C)=O)CC5)nc(OC[C@@]56CCCN5C[C@H](F)C6)nc4c3F)c12 [Example 212, N-acetyl-1-(7-(8-ethyl-7-fluoro-3-hydroxynaphthalen-1-yl)-8-fluoro-2-(((2R,7aS)-2-fluorotetrahydro-1H-pyrrolizin-7a(5H)-yl)methoxy)pyrido[4,3-d]pyrimidin-4-yl)piperidine-4-carboxamide]",623 nM,371 nM,165 nM,868 nM,> 10000 nM,4600 nM
"CN(CCNC(=O)n1nccn1)c1nc(OC[C@@]23CCCN2C[C@H](F)C3)nc2c(F)c(-c3ccc(F)c4sc(N)c(C#N)c34)c(Cl)cc12 [Example 213, N-(2-((7-(2-amino-3-cyano-7-fluorobenzo[b]thiophen-4-yl)-6-chloro-8-fluoro-2-(((2R,7aS)-2-fluorotetrahydro-1H-pyrrolizin-7a(5H)-yl)methoxy)quinazolin-4-yl)(methyl)amino)ethyl)-2H-1,2,3-triazole-2-carboxamide]",< 2 nM,5 nM,8 nM,387 nM,1180 nM,10 nM
"CN(CCCC(=O)Nc1ccccn1)c1nc(OC[C@@]23CCCN2C[C@H](F)C3)nc2c(F)c(-c3ccc(F)c4sc(N)c(C#N)c34)c(Cl)cc12 [Example 214, 4-((7-(2-amino-3-cyano-7-fluorobenzo[b]thiophen-4-yl)-6-chloro-8-fluoro-2-(((2R,7aS)-2-fluorotetrahydro-1H-pyrrolizin-7a(5H)-yl)methoxy)quinazolin-4-yl)(methyl)amino)-N-(pyridin-2-yl)butanamide]",8 nM,13 nM,14 nM,120 nM,661 nM,93 nM
"Cc1ccn(C(=O)C2CCCN(c3nc(OC[C@@]45CCCN4C[C@H](F)C5)nc4c(F)c(-c5csc6ccc(N)nc56)c(Cl)cc34)CC2)n1 (stereo partly drawn) [Example 215, (1-(7-(5-aminothieno[3,2-b]pyridin-3-yl)-6-chloro-8-fluoro-2-(((2R,7aS)-2-fluorotetrahydro-1H-pyrrolizin-7a(5H)-yl)methoxy)quinazolin-4-yl)azepan-4-yl)(3-methyl-1H-pyrazol-1-yl)methanone]",2400 nM,169 nM,11400 nM,3920 nM,242 nM,> 10000 nM
"N#Cc1c(N)sc2c(F)ccc(-c3c(Cl)cc4c(N5CCC[C@H](C(=O)n6ccc(C7CC7)n6)CC5)nc(OC[C@@]56CCCN5C[C@H](F)C6)nc4c3F)c12 [Example 216, 2-amino-4-(6-chloro-4-((S)-4-(3-cyclopropyl-1H-pyrazole-1-carbonyl)azepan-1-yl)-8-fluoro-2-(((2R,7aS)-2-fluorotetrahydro-1H-pyrrolizin-7a(5H)-yl)methoxy)quinazolin-7-yl)-7-fluorobenzo[b]thiophene-3-carbonitrile]",4 nM,3 nM,22 nM,71 nM,2 nM,5 nM
"COC(=O)CCCN(C)c1nc(OC[C@@]23CCCN2C[C@H](F)C3)nc2c(F)c(-c3ccc(F)c4sc(N)c(C#N)c34)c(Cl)cc12 [Example 217, methyl 4-((7-(2-amino-3-cyano-7-fluorobenzo[b]thiophen-4-yl)-6-chloro-8-fluoro-2-(((2R,7aS)-2-fluorotetrahydro-1H-pyrrolizin-7a(5H)-yl)methoxy)quinazolin-4-yl)(methyl)amino)butanoate]",5 nM,7 nM,9 nM,763 nM,6880 nM,296 nM
"CN(CCCC(=O)Oc1ccccc1F)c1nc(OC[C@@]23CCCN2C[C@H](F)C3)nc2c(F)c(-c3ccc(F)c4sc(N)c(C#N)c34)c(Cl)cc12 [Example 218, 2-fluorophenyl 4-((7-(2-amino-3-cyano-7-fluorobenzo[b]thiophen-4-yl)-6-chloro-8-fluoro-2-(((2R,7aS)-2-fluorotetrahydro-1H-pyrrolizin-7a(5H)-yl)methoxy)quinazolin-4-yl)(methyl)amino)butanoate]",3 nM,16 nM,83 nM,322 nM,175 nM,15 nM
"CN(C)CCc1ccn(C(=O)C2CCCN(c3nc(OC[C@@]45CCCN4C[C@H](F)C5)nc4c(F)c(-c5ccc(F)c6sc(N)c(C#N)c56)c(Cl)cc34)CC2)n1 (stereo partly drawn) [Example 219, 2-amino-4-(6-chloro-4-(4-(3-(2-(dimethylamino)ethyl)-1H-pyrazole-1-carbonyl)azepan-1-yl)-8-fluoro-2-(((2R,7aS)-2-fluorotetrahydro-1H-pyrrolizin-7a(5H)-yl)methoxy)quinazolin-7-yl)-7-fluorobenzo[b]thiophene-3-carbonitrile]",3 nM,4 nM,10 nM,431 nM,12 nM,16 nM
"CC(C)(C)c1ccn(C(=O)C2CCCN(c3nc(OC[C@@]45CCCN4C[C@H](F)C5)nc4c(F)c(-c5ccc(F)c6sc(N)c(C#N)c56)c(Cl)cc34)CC2)n1 (stereo partly drawn) [Example 220, 2-amino-4-(4-(4-(3-(tert-butyl)-1H-pyrazole-1-carbonyl)azepan-1-yl)-6-chloro-8-fluoro-2-(((2R,7aS)-2-fluorotetrahydro-1H-pyrrolizin-7a(5H)-yl)methoxy)quinazolin-7-yl)-7-fluorobenzo[b]thiophene-3-carbonitrile]",209 nM,153 nM,160 nM,258 nM,336 nM,449 nM
